Assay results from publication PMC4858680, “A platinum-based hybrid drug design approach to circumvent acquired resistance to molecular targeted tyrosine kinase inhibitors” (Scientific Reports, 2016).
Positions count from the first letter of the chain named. Read-outs that look alike come from different tables or passages of the source.

Key:
EPHA4 = target: T1, EPHA4 (Homo sapiens, UniProt P54764); format: binding; details: 10 μM
T1 construct: purchased DiscoveRx KINOMEscan

ERBB2 = target: T2, ERBB2 (Homo sapiens, UniProt P04626); format: binding; details: for remaining binding at 10 µM: read-out: Percent control
T2 construct: purchased DiscoveRx KINOMEscan

EPHA5 = EPHA5 (Homo sapiens, UniProt P54756); details: 10 μM
FLT3 = target: T3, FLT3 (Homo sapiens, UniProt P36888)
T3 sequence (P36888 27-993): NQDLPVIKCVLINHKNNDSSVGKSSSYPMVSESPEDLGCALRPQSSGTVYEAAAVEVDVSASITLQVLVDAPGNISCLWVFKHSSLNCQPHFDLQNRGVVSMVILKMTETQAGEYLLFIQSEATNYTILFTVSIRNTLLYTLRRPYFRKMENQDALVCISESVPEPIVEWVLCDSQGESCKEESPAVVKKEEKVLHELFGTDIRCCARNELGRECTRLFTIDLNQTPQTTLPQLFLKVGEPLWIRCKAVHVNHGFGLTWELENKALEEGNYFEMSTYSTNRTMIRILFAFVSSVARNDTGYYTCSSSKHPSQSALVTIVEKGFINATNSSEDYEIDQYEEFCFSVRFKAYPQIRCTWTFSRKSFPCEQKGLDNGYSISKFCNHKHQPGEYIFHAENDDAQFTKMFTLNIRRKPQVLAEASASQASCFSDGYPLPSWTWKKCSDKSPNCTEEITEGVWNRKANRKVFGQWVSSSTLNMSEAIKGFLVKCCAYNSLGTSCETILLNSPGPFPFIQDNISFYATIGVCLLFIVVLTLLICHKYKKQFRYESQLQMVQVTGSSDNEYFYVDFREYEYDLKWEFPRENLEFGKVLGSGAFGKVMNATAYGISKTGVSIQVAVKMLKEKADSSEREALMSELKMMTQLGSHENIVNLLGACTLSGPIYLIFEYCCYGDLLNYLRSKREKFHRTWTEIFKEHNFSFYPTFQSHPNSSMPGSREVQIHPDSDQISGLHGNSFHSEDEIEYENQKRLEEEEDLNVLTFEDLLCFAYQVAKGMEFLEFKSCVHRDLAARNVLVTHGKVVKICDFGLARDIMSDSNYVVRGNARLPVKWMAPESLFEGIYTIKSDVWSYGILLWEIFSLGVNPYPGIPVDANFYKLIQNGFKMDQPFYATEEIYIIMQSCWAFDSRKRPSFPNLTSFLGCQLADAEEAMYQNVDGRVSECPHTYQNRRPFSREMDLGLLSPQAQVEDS

FLT3(R834Q) = target: T4, FLT3(R834Q) (Homo sapiens, UniProt P36888, R834Q)
T4 sequence (P36888 27-993 R834Q): T3 sequence (P36888 27-993) with R808Q

KIT = KIT (Homo sapiens, UniProt P10721); details: 10 μM
KIT(A829P) [1] = target: T5, KIT(A829P) (Homo sapiens, UniProt P10721, A829P); details: 10 μM
KIT(L576P) [2] = target: T6, KIT(L576P) (Homo sapiens, UniProt P10721, L576P); details: 10 μM
KIT(V559D) = KIT(V559D) (Homo sapiens, UniProt P10721, V559D); details: 10 μM
LTK = LTK (Homo sapiens, UniProt P29376); details: 10 μM
MET = MET (Homo sapiens, UniProt P08581); details: 10 μM
MET(M1250T) = MET(M1250T) (Homo sapiens, UniProt P08581, M1250T); details: 10 μM
SRC = SRC (Homo sapiens, UniProt P12931); details: 10 μM
FYN = FYN (Homo sapiens, UniProt P06241); test: biochemical; details: read-out: Percent control
KIT(A829P) [3] = target: T5, KIT(A829P); test: biochemical; details: read-out: Percent control
KIT(L576P) [4] = target: T6, KIT(L576P); test: biochemical; details: read-out: Percent control
MET(Y1235D) = MET(Y1235D) (Homo sapiens, UniProt P08581, Y1235D); test: biochemical; details: read-out: Percent control

T2 sequence (P04626 23-1255): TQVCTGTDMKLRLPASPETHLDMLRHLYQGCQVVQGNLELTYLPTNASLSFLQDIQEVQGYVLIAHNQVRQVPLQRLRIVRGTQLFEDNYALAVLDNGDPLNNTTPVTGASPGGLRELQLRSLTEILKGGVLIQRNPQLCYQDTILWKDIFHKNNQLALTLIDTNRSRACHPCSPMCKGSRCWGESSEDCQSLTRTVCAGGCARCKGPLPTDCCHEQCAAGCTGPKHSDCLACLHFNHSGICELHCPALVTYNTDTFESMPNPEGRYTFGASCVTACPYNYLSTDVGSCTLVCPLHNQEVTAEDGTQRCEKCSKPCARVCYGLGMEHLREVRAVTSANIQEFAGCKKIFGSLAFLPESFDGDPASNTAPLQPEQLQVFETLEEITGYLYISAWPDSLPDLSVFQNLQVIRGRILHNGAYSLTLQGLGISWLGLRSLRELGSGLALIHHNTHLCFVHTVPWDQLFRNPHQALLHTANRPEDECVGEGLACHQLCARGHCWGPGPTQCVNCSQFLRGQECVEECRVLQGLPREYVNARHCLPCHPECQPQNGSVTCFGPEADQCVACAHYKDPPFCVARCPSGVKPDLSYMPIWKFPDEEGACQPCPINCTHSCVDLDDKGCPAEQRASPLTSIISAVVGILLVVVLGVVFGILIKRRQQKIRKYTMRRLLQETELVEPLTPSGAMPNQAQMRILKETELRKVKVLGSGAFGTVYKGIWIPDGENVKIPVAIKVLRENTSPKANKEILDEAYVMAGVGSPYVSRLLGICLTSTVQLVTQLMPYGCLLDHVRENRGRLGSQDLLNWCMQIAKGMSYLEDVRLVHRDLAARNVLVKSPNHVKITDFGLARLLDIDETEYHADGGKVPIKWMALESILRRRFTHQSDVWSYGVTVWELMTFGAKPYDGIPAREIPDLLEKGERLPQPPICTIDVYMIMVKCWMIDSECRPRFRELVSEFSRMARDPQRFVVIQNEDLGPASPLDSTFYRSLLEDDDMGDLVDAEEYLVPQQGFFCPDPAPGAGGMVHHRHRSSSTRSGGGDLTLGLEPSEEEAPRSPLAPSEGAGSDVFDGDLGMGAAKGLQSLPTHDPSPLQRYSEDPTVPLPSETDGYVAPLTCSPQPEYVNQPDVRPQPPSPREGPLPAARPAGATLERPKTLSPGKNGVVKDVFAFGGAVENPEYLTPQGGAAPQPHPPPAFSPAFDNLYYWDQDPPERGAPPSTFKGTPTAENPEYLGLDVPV
T1 sequence (P54764 20-986): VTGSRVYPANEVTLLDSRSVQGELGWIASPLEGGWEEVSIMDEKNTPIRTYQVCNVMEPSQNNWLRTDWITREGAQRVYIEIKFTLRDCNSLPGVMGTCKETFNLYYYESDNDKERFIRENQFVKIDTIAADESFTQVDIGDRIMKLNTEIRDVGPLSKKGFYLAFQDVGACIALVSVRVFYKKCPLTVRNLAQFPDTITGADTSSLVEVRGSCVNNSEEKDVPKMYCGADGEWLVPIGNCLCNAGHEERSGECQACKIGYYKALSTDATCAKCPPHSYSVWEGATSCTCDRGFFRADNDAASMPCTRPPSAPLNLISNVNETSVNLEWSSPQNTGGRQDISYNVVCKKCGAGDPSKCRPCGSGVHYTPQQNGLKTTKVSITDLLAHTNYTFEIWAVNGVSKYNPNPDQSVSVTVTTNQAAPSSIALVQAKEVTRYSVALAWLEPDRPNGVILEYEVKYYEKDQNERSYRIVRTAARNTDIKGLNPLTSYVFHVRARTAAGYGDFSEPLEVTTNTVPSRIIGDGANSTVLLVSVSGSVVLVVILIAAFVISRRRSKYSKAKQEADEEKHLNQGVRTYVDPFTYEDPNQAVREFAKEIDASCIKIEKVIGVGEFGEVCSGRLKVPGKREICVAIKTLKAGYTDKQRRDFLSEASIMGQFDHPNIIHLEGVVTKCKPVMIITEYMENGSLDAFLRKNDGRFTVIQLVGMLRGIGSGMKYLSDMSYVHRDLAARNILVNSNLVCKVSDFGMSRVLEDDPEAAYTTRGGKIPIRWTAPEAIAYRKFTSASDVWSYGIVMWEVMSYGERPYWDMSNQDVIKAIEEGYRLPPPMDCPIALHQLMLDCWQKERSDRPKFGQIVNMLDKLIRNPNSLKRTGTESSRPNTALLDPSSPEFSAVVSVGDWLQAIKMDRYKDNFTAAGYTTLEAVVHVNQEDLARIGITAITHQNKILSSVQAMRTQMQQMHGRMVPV
Chain of KIT (P10721 26-976): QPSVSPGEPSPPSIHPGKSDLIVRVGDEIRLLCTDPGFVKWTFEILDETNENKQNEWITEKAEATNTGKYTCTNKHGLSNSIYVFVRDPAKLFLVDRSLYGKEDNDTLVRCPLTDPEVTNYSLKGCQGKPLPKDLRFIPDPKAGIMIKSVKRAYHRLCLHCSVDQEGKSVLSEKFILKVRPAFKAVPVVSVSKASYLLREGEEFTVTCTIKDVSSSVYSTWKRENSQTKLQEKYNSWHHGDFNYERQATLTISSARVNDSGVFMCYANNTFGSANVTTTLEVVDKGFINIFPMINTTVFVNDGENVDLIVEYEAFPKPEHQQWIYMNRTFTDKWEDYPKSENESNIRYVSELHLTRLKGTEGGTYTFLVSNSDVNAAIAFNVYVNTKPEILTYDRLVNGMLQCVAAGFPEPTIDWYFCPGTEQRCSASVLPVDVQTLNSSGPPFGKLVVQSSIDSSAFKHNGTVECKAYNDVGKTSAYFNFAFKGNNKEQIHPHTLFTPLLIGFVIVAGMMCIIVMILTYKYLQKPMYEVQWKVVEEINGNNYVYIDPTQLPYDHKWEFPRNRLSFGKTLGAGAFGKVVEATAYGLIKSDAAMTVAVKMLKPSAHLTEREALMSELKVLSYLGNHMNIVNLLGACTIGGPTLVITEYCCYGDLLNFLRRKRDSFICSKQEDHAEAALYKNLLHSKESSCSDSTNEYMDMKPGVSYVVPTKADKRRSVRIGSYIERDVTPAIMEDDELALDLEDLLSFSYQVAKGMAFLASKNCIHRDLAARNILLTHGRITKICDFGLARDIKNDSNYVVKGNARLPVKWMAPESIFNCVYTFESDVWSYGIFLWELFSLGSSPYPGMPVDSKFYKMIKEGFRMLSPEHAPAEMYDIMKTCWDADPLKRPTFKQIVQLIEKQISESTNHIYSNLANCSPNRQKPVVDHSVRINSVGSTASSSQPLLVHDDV
Chain of KIT(V559D) (P10721 26-976 V559D): as the sequence (P10721 26-976) above, with V534D counted along it
Chain of EPHA5 (P54756 25-1037): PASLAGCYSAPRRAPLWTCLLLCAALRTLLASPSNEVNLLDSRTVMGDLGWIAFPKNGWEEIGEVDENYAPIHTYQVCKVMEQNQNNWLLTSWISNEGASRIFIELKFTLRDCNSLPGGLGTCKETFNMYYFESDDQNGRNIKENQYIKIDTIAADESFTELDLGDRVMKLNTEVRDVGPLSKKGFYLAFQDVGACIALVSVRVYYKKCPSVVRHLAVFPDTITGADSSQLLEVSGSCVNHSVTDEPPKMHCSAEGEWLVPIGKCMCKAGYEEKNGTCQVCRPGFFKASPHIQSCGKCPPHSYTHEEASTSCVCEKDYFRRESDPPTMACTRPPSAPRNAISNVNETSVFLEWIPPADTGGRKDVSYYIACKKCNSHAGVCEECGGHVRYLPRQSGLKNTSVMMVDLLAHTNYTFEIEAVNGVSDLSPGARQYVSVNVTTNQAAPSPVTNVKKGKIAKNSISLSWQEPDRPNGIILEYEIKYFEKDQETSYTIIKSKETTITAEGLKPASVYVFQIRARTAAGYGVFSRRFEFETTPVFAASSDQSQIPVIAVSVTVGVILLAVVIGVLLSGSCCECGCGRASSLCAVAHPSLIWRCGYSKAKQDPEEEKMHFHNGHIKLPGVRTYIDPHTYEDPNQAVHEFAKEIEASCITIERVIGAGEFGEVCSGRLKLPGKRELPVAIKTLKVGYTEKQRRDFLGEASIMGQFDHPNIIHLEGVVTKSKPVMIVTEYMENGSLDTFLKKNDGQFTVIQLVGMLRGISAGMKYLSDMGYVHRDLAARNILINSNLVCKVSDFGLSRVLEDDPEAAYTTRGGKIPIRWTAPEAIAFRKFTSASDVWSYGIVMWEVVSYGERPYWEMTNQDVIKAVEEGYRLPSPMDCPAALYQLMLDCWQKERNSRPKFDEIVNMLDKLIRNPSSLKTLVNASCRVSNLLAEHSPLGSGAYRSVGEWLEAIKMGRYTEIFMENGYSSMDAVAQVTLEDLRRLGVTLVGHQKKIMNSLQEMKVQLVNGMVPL
T5 sequence (P10721 26-976 A829P): as the sequence (P10721 26-976) above, with A804P counted along it
T6 sequence (P10721 26-976 L576P): as the sequence (P10721 26-976) above, with L551P counted along it
Chain of FYN (P06241 whole entry): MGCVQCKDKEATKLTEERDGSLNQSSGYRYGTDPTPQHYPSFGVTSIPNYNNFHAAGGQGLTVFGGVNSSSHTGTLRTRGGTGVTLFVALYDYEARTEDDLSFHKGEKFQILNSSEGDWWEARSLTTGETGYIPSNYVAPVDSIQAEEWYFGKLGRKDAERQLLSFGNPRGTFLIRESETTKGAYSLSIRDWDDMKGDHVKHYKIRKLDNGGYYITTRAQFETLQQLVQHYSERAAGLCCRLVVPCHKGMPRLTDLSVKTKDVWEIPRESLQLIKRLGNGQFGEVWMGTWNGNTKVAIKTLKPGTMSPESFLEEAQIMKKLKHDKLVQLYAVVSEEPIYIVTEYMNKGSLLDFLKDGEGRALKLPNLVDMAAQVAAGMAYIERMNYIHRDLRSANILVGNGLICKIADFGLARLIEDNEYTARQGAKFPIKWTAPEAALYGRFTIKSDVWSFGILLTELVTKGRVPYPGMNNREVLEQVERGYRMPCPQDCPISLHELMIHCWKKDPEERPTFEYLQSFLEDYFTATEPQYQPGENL

Structure (SMILES)	Percent control (EPHA4)	Percent control (ERBB2; ERBB2, 10 μM)	Percent control (EPHA5)	Percent control (FLT3; FLT3, 10 μM)	Percent control (FLT3(R834Q); FLT3(R834Q), 10 μM)	Percent control (KIT)	Percent control (KIT(A829P) [1])	Percent control (KIT(L576P) [2])	Percent control (KIT(V559D))	Percent control (LTK)	Percent control (MET)	Percent control (MET(M1250T))	Percent control (FLT3)	Percent control (FLT3(R834Q))	Percent control (SRC)	remaining activity at 10 µM (FYN)	remaining activity at 10 µM (KIT(A829P) [3])	remaining activity at 10 µM (KIT(L576P) [4])	remaining activity at 10 µM (MET(Y1235D))	other results
Cc1ccc(NC(=O)c2ccc(CN3CCN(C)CC3)cc2)cc1Nc1nccc(-c2cccnc2)[n+]1[Pt-2]1([Cl])[NH2+]C2CCCCC2[NH2+]1 (stereo not drawn) [1b, oxaliplatin-imatinib]	88%	82%	100%	88%	94%	0.2%	5%	0.9%	0%	85%	88%	89%								
C#Cc1cccc(Nc2c3cc(OCCOC)c(OCCOC)cc3nc[n+]2[Pt@SP2-2]([NH3+])([NH3+])[Cl])c1 [2a, cisplatin-erlotinib]	79%	21%	100%			86%	56%	73%	88%	82%	63%	95%	75	80	66%					
COc1cc2c(Nc3ccc(Br)cc3F)[n+]([Pt-2]3([Cl])[NH2+]C4CCCCC4[NH2+]3)cnc2cc1OCC1CCN(C)CC1 (stereo not drawn) [3b, oxaliplatin-vandetanib]			78%			1.1%	2.7%	2.2%	0.5%	27%			49	89	0.5%					
C#Cc1cccc(Nc2ncnc3cc(OCCOC)c(OCCOC)cc23)c1 [Erlotinib]																100%	100%	25.9%	9.9%	remaining binding at 10 µM (ERBB2): 22.5%
Cc1ccc(NC(=O)c2ccc(CN3CCN(C)CC3)cc2)cc1Nc1nccc(-c2cccnc2)n1 [Imatinib, reference compound]	100%	100%		100%	100%					92%							0.1%	0.1%	100%	
COc1cc2c(Nc3ccc(Br)cc3F)ncnc2cc1OCC1CCN(C)CC1 [Vandetanib, reference compound]																3.5%	0.3%	1.4%		remaining binding at 10 µM (ERBB2; ERBB2, 10 μM): 20.6%
